Molecules are shown by their SMILES. Bounds are passed on as bounds.

In this assay the test system is hepatocellular carcinoma cell line Hub-7. The assay is described as follows: Cell proliferation assay, Hub-7 (CELL-TITER GLO). The class given is cell-based. The settings on record: Hub-7 cells, 24 h incubation, cell viability by CELL-TITER GLO, top concentration 10 μM; read-out: EC50, Inhibition of Hub-7 Cell Proliferation. As for the experimental part: The activity of a compound was determined in a cell proliferation assay using the hepatocellular carcinoma cell line Hub-7. Cells (4,000 cells per well) were seeded in a 96-well tissue culture plate. After incubated overnight, the compound was added at predetermined concentrations, starting with 10 μM and followed by 3-fold serial dilution. After the cells were incubated for 24 h, cell viability was determined using a CELL-TITER GLO® assay. The CELL-TITER GLO® reagent (50 μL) was added to each well and the luminescence was measured by a multimode microplate reader after a brief period of shaking. EC50 values were determined for the compound. The results are summarized in Table 1, wherein A represents a value no greater than 200 nM, B represents a value greater than 200 nM but no greater than 1 μM, C represents a value greater than 1 μM but no greater than 5 μM, and D represents a value greater than 5 μM.
Take `C#Cc1nc(NC(=O)NCc2ccc(-c3cccc(N4CCCC4)c3)cc2)cs1` [Compound A7, 1-(2-Ethynylthiazol-4-yl)-3-((3′-(pyrrolidin-1-yl)-[1,1′-biphenyl]-4-yl)methyl)urea]: the EC50 was ≤ 200 nM. The figure for `C#Cc1nc(C(=O)N(C)Cc2ccccc2)cs1` [Compound C137, N-Benzyl-2-ethynyl-N-methylthiazole-4-carboxamide] is 1000 to 5000 nM; for `C#Cc1nc(C(=O)NCCc2ccc(-c3cccc4ccnc(O)c34)cc2)cs1` [Compound C16, 2-Ethynyl-N-(4-(1-hydroxyisoquinolin-8-yl)phenethyl)thiazole-4-carboxamide] it is 200 to 1000 nM. The figure for `C#Cc1nc(C(=O)N2CCN(c3ccc(C#N)cc3)CC2)cs1` [Compound D26, 4-(4-(2-Ethynylthiazole-4-carbonyl)piperazin-1-yl)benzonitrile] is 200 to 1000 nM; for `C#Cc1nc(NC(=O)N2CC(c3ccc(-c4cccc5ncsc45)cc3)C2)cs1` [Compound B2, 3-(4-(Benzo[d]thiazol-7-yl)phenyl)-N-(2-ethynylthiazol-4-yl)azetidine-1-carboxamide] it is ≤ 200 nM. The figure for `C#Cc1nc(NC(=O)N2CCC(c3ccc(-c4cccc5ncsc45)cc3)CC2)cs1` [Compound B6, 4-(4-(Benzo[d]thiazol-7-yl)phenyl)-N-(2-ethynylthiazol-4-yl)piperidine-1-carboxamide] is ≤ 200 nM; for `C#Cc1nc(C(=O)N2CCN(c3ccc(-c4cc(C(N)=O)cc5ncsc45)cc3)CC2)cs1` [Compound D5, 7-(4-(4-(2-Ethynylthiazole-4-carbonyl)piperazin-1-yl)phenyl)benzo[d]thiazole-5-carboxamide] it is 1000 to 5000 nM.

As for `C#Cc1nc(NC(=O)CCc2ccccc2)cs1` [Compound C123, N-(2-Ethynylthiazol-4-yl)-3-phenylpropanamide], the EC50 lay within 200 to 1000 nM. The figure for `C#Cc1nc(NC(=O)CCc2ccc3c(c2)OCO3)cs1` [Compound E9, 3-(Benzo[d][1,3]dioxol-5-yl)-N-(2-ethynylthiazol-4-yl)propanamide] is 200 to 1000 nM. The figure for `C#Cc1nc(NC(=O)NCc2ccc(-c3cccc(C(N)=O)c3)cc2)cs1` [Compound A10, 4′-((3-(2-Ethynylthiazol-4-yl)ureido)methyl)-[1,1′-biphenyl]-3-carboxamide] is 200 to 1000 nM. To `C#Cc1nc(C(=O)NCCc2cccc(-c3cccc4[nH]ncc34)c2)cs1` [Compound C39, N-(3-(1H-Indazol-4-yl)phenethyl)-2-ethynylthiazole-4-carboxamide] belongs 200 to 1000 nM; to `C#Cc1nc(C(=O)NCCc2ccc(-c3cc(C(=O)OC)cc4ncsc34)cc2)cs1` [Compound C10, Methyl 7-(4-(2-(2-ethynylthiazole-4-carboxamido)ethyl)phenyl)benzo[d]thiazole-5-carboxylate], ≤ 200 nM; to `C#Cc1nc(NC(=O)NCc2ccc(-c3cc(C(=O)NC)cc4c3cnn4C)cc2)cs1` [Compound A21, 4-(4-((3-(2-Ethynylthiazol-4-yl)ureido)methyl)phenyl)-N,1-dimethyl-1H-indazole-6-carboxamide], 200 to 1000 nM. `C#Cc1nc(C(=O)N2CCN(c3ccc(-c4cc(C(=O)NC)cc5ncsc45)cc3)CC2)cs1` [Compound D3, 7-(4-(4-(2-Ethynylthiazole-4-carbonyl)piperazin-1-yl)phenyl)-N-methylbenzo[d]thiazole-5-carboxamide]: the EC50 lay in the range of 200 to 1000 nM.

Take `C#Cc1nc(C(=O)NCc2ccccc2N)cs1` [Compound C140, N-(2-Aminobenzyl)-2-ethynylthiazole-4-carboxamide]: the EC50 lay in the range of 1000 to 5000 nM. The figure for `C#Cc1nc(C(=O)NCc2ccccc2C#N)cs1` [Compound C63, N-(2-Cyanobenzyl)-2-ethynylthiazole-4-carboxamide] is ≤ 200 nM. To `C#Cc1nc(C(=O)NCCc2ccc(-c3ccc4scnc4c3)cc2)cs1` [Compound C25, N-(4-(Benzo[d]thiazol-5-yl)phenethyl)-2-ethynylthiazole-4-carboxamide] belongs 200 to 1000 nM. To `C#Cc1nc(C(=O)NCc2ccc(CCC(=O)OC)cc2)cs1` [Compound C73, Methyl 3-(4-((2-ethynylthiazole-4-carboxamido)methyl)phenyl)propanoate] belongs > 5000 nM. Regarding `C#Cc1nc(C(=O)NCCc2ccc(-c3cccc4ncsc34)cc2)cs1` [Compound C34, N-(4-(Benzo[d]thiazol-7-yl)phenethyl)-2-ethynylthiazole-4-carboxamide], the EC50 is ≤ 200 nM. To `C#Cc1ncc(C(=O)N2CCN(c3ccc(-c4cccc5ncsc45)cc3)CC2)s1` [Compound D7, (4-(4-(benzo[d]thiazol-7-yl)phenyl)piperazin-1-yl)(2-ethynylthiazol-5-yl)methanone] belongs ≤ 200 nM. With `C#Cc1nc(NC(=O)CCc2ccc(-c3cccc4ncsc34)cc2)cs1` [Compound E1, 3-(4-(benzo[d]thiazol-7-yl)phenyl)-N-(2-ethynylthiazol-4-yl)propanamide], the EC50 was in the range of 200 to 1000 nM. `C#Cc1nc(C(=O)N2CCC(c3ccc(-c4cccc5ncsc45)cc3)CC2)cs1` [Compound D18, (4-(4-(Benzo[d]thiazol-7-yl)phenyl)piperidin-1-yl)(2-ethynylthiazol-4-yl)-methanone]: the EC50 was ≤ 200 nM. To `C#Cc1nc(C(=O)N2CCC(c3ccccc3)CC2)cs1` [Compound D29, (2-Ethynylthiazol-4-yl)(4-phenylpiperidin-1-yl)methanone] belongs 200 to 1000 nM; to `C#Cc1nc(C(=O)NCc2cccc(Cl)c2)c(-c2ccccc2)s1` [Compound C56, N-(3-Chlorobenzyl)-2-ethynyl-5-phenylthiazole-4-carboxamide], 1000 to 5000 nM. To `C#Cc1nc(C(=O)NCCc2ccccc2Cl)cs1` [Compound C106, N-(2-Chlorophenethyl)-2-ethynylthiazole-4-carboxamide] belongs 200 to 1000 nM; to `C#Cc1nc(NC(=O)NCc2ccc(-c3c(C(=O)NC)ccc4ncsc34)cc2)cs1` [Compound A17, 7-(4-((3-(2-Ethynylthiazol-4-yl)ureido)methyl)phenyl)-N-methylbenzo[d]-thiazole-6-carboxamide], 1000 to 5000 nM.

`C#Cc1nc(C(=O)NCc2cccc(-c3ccccc3)c2)cs1` [Compound C115, N-([1,1′-Biphenyl]-3-ylmethyl)-2-ethynylthiazole-4-carboxamide]: the EC50 is ≤ 200 nM. Turning to `C#Cc1nc(C(=O)N2CCN(c3ccc([N+](=O)[O-])cc3)CC2)cs1` [Compound D27, (2-Ethynylthiazol-4-yl)(4-(4-nitrophenyl)piperazin-1-yl)methanone], the EC50 was ≤ 200 nM. As for `C#Cc1csc(C(=O)NCc2ccccc2)n1` [Compound C145, N-Benzyl-4-ethynylthiazole-2-carboxamide], the EC50 is > 5000 nM.

With `C#Cc1nc(C(=O)NCc2ccc(-c3cccnc3)cc2)cs1` [Compound C93, 2-Ethynyl-N-(4-(pyridin-3-yl)benzyl)thiazole-4-carboxamide], the EC50 fell in the range of 200 to 1000 nM. Take `C#Cc1nc(C(=O)NCCc2cccc(S(C)(=O)=O)c2)cs1` [Compound C105, 2-Ethynyl-N-(3-(methylsulfonyl)phenethyl)thiazole-4-carboxamide]: the EC50 is 1000 to 5000 nM.

The values are drawn from patent US20240101546A1, “HETEROARYL-ACETYLENES, PHARMACEUTICAL COMPOSITIONS THEREOF, AND THEIR THERAPEUTIC APPLICATIONS” (Eubulus Biotherapeutics Inc., priority 2020, published 2024).
